Test results taken from patent publication US9090599B2, “Heteroarylmethyl amides” (Hoffman-La Roche Inc., priority 2010, dated 2015).
Where two headings read alike, the source gives them in different places.

Key:
human CB1 receptor = target: T1, human CB1 receptor (Homo sapiens, UniProt P21554); test: CB1 receptor affinity, [3H]-CP-55,940 displacement, HEK cell membranes; assay type: binding; details: read-out: CB1 receptor affinity [% inhibition @ 10 μM]
T1 construct: expressed in transfected cells; host or cells: human embryonic kidney (HEK) cells, Semliki Forest Virus system, membrane preparations
T1 sequence (P21554 whole entry): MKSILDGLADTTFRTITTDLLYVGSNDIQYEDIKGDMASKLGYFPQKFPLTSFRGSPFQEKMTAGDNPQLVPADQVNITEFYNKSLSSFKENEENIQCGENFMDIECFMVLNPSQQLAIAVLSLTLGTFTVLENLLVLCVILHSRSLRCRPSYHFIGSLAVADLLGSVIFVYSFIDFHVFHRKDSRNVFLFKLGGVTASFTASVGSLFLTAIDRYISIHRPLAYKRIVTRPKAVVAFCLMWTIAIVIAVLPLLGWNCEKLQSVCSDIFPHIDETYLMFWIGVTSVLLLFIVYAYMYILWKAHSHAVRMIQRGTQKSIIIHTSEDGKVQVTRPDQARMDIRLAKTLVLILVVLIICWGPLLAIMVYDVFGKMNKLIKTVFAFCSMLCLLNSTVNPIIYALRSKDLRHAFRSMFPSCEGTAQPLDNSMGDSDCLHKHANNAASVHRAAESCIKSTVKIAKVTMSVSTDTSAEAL
Experimental: (§1) The affinity of the compounds of the invention for cannabinoid receptors was determined using membrane preparations of human embryonic kidney (HEK) cells in which the human CB1 receptor is transiently transfected using a Semliki Forest Virus system in conjunction with [3H]-CP-55,940 as radioligand. After incubation of freshly prepared cell membrane preparation with the [^3H]-ligand, with or without addition of compounds of the invention, separation of bound and free ligand was performed by filtration over glass fiber filters. Radioactivity on the filter was measured by scintillation counting.
(§2) The ability of the compounds to displace the radioligand [^3H]-CP-55,940 was measured at a concentration of 10 μM and values provided as [% inhibition @ 10 μM] both for the CB 1 and CB2 receptor assay, The lower % inhibition is, the lower the likelihood of side effects based on CB1 or CB2 receptor inhibition is.

human CB2 receptor = target: T2, human CB2 receptor (Homo sapiens, UniProt P34972); test: CB2 receptor affinity, [3H]-CP-55,940 displacement, HEK cell membranes; assay type: binding; details: 10 μM compound, radioligand [3H]-CP-55,940
T2 construct: expressed in transfected cells; host or cells: human embryonic kidney (HEK) cells, Semliki Forest Virus system, membrane preparations
T2 sequence (P34972 whole entry): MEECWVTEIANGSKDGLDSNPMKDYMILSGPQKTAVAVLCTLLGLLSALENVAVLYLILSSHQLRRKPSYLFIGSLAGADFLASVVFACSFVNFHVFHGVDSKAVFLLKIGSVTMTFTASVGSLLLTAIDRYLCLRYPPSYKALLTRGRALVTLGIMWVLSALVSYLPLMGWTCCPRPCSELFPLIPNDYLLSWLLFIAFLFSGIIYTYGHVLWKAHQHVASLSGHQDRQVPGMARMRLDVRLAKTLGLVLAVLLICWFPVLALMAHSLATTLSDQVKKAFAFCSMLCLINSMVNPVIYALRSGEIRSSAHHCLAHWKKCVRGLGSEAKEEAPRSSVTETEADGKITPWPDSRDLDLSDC
Experimental: as §1, with “cannabinoid CB2” for “cannabinoid”, “CB2” for “CB1”, “[^3H]-CP-55,940” for “[3H]-CP-55,940”
as §2

[1] = 10 μM compound, radioligand [3H]-CP-55,940

| Compound | inhibition at 10 µM (human CB1 receptor; [1]) | inhibition at 10 µM (human CB2 receptor) | inhibition at 10 µM (human CB1 receptor) |
| --- | --- | --- | --- |
| CC(C)(C)c1nc(CNC(=O)c2cc(-c3ccc(Cl)cc3)c(OCC3CC3)cn2)cs1 [Example 54, N-((2-tert-butylthiazol-4-yl)methyl)-4-(4-chlorophenyl)-5-(cyclopropylmethoxy)picolinamide] | 20% | 12% | – |
| CC(C)c1cc(CNC(=O)c2ccc(OCC3CC3)c(-c3ccc(Cl)cc3)n2)no1 [Example 55, 6-(4-chloro-phenyl)-5-cyclopropylmethoxy-pyridine-2-carboxylic acid (5-isopropyl-isoxazol-3-ylmethyl)-amide] | 44% | 33% | – |
| O=C(NCc1coc(C2CC2)n1)c1ccc(OCC2CC2)c(-c2ccc(Cl)cc2)n1 [Example 56, 6-(4-chloro-phenyl)-5-cyclopropylmethoxy-pyridine-2-carboxylic acid (2-cyclopropyl-oxazol-4-ylmethyl)-amide] | 38% | 32% | – |
| O=C(NCc1csc(C2CC2)n1)c1ccc(OCC2CC2)c(-c2ccc(Cl)cc2)n1 [Example 57, 6-(4-chloro-phenyl)-5-cyclopropylmethoxy-pyridine-2-carboxylic acid (2-cyclopropyl-thiazol-4-ylmethyl)-amide] | – | 36% | 31% |
| O=C(NCc1cc(C(F)(F)F)on1)c1ccc(OCC2CC2)c(-c2ccc(Cl)cc2)n1 [Example 58, 6-(4-chloro-phenyl)-5-cyclopropylmethoxy-pyridine-2-carboxylic acid (5-trifluoromethyl-isoxazol-3-ylmethyl)-amide] | 42% | 19% | – |
| O=C(NCc1cc(C(F)(F)F)no1)c1cnc(OCC(F)(F)F)c(-c2ccc(Cl)cc2)c1 [Example 59, 5-(4-chloro-phenyl)-6-(2,2,2-trifluoro-ethoxy)-N-(3-trifluoromethyl-isoxazol-5-ylmethyl)-nicotinamide] | – | -2% | 49% |
| O=C(NCc1cc(C(F)(F)F)no1)c1ncc(OCC2CC2)c(-c2ccc(Cl)cc2)n1 [Example 62, 4-(4-chloro-phenyl)-5-cyclopropylmethoxy-pyrimidine-2-carboxylic acid (3-trifluoromethyl-isoxazol-5-ylmethyl)-amide] | 44% | 24% | – |
| CC(C)(C)c1nc(CNC(=O)c2ccc(OCC3CC3)c(-c3ccc(Cl)cc3)n2)cs1 [Example 63, 6-(4-chloro-phenyl)-5-cyclopropylmethoxy-pyridine-2-carboxylic acid (2-tert-butyl-thiazol-4-ylmethyl)-amide] | 36% | 38% | – |
| O=C(NCc1cc(C(F)(F)F)on1)c1cnc(OCC2CC2)c(-c2ccc(Cl)cc2)c1 [Example 66, 5-(4-chloro-phenyl)-6-cyclopropylmethoxy-N-(5-trifluoromethyl-isoxazol-3-ylmethyl)-nicotinamide] | 49% | 18% | – |
| C[C@H](Oc1cnc(C(=O)NCc2cc(C(F)(F)F)no2)nc1-c1ccc(Cl)cc1)C(F)(F)F [Example 68, (S)-4-(4-chlorophenyl)-N-((3-(trifluoromethyl)isoxazol-5-yl)methyl)-5-(1,1,1-trifluoropropan-2-yloxy)pyrimidine-2-carboxamide] | 45% | 3% | – |
| C[C@H](Oc1ncc(C(=O)NCc2ccccn2)nc1-c1ccc(Cl)cc1)C(F)(F)F [Example 69, (S)-6-(4-chlorophenyl)-N-(pyridin-2-ylmethyl)-5-(1,1,1-trifluoropropan-2-yloxy)pyrazine-2-carboxamide] | 34% | 40% | – |
| COc1cc(CNC(=O)c2cc(-c3ccc(C)c(Cl)c3)c(OCC(F)(F)F)cn2)on1 [Example 73, 4-(3-chloro-4-methylphenyl)-N-((3-methoxyisoxazol-5-yl)methyl)-5-(2,2,2-trifluoroethoxy)picolinamide] | – | 45% | 22% |
| COc1cc(CNC(=O)c2cc(-c3ccc(C)c(C)c3)c(OCC(F)(F)F)cn2)on1 [Example 75, 4-(3,4-dimethylphenyl)-N-((3-methoxyisoxazol-5-yl)methyl)-5-(2,2,2-trifluoroethoxy)picolinamide] | 19% | 34% | – |
| Cc1ccc(-c2cc(C(=O)NCc3nc(C(F)(F)F)no3)ncc2OCC(F)(F)F)cc1C [Example 78, 4-(3,4-dimethylphenyl)-5-(2,2,2-trifluoroethoxy)-N-((3-(trifluoromethyl)-1,2,4-oxadiazol-5-yl)methyl)picolinamide] | 17% | 5% | – |
| O=C(NCc1nc(C(F)(F)F)no1)c1cnc(OCC(F)(F)F)c(-c2ccc(Cl)c(F)c2)c1 [Example 82, 5-(4-chloro-3-fluorophenyl)-6-(2,2,2-trifluoroethoxy)-N-((3-(trifluoromethyl)-1,2,4-oxadiazol-5-yl)methyl)nicotinamide] | 30% | 27% | – |
| CCc1ccc(-c2cc(C(=O)NCc3nc(C(F)(F)F)no3)cnc2OCC(F)(F)F)cc1 [Example 83, 5-(4-ethylphenyl)-6-(2,2,2-trifluoroethoxy)-N-((3-(trifluoromethyl)-1,2,4-oxadiazol-5-yl)methyl)nicotinamide] | 44% | -2% | – |
| O=C(NCc1nc(C(F)(F)F)no1)c1cnc(OCC(F)(F)F)c(-c2ccc(Cl)cc2F)c1 [Example 84, 5-(4-chloro-2-fluorophenyl)-6-(2,2,2-trifluoroethoxy)-N-((3-(trifluoromethyl)-1,2,4-oxadiazol-5-yl)methyl)nicotinamide] | 49% | 21% | – |
| O=C(NCc1nc(C(F)(F)F)no1)c1cnc(OCC(F)(F)F)c(-c2ccc3c(c2)CCC3)c1 [Example 85, 5-(2,3-dihydro-1H-inden-5-yl)-6-(2,2,2-trifluoroethoxy)-N-((3-(trifluoromethyl)-1,2,4-oxadiazol-5-yl)methyl)nicotinamide] | 7% | 8% | – |
| COc1cc(CNC(=O)c2cnc(OCC(F)(F)F)c(-c3ccc(Cl)c(F)c3)c2)on1 [Example 86, 5-(4-chloro-3-fluorophenyl)-N-((3-methoxyisoxazol-5-yl)methyl)-6-(2,2,2-trifluoroethoxy)nicotinamide] | 37% | 9% | – |
| N#Cc1ccc(-c2cc(C(=O)NCc3nc(C(F)(F)F)no3)cnc2OCC(F)(F)F)cc1 [Example 87, 5-(4-cyanophenyl)-6-(2,2,2-trifluoroethoxy)-N-((3-(trifluoromethyl)-1,2,4-oxadiazol-5-yl)methyl)nicotinamide] | 45% | 3% | – |
| O=C(NCc1ccn(CC2CC2)n1)c1cnc(OCC(F)(F)F)c(-c2ccc(Cl)cc2)c1 [Example 88, 5-(4-chlorophenyl)-N-((1-(cyclopropylmethyl)-1H-pyrazol-3-yl)methyl)-6-(2,2,2-trifluoroethoxy)nicotinamide] | 48% | 11% | – |
| Cc1noc(CNC(=O)c2cnc(OCC(F)(F)F)c(-c3ccc(Cl)cc3)c2)n1 [Example 90, 5-(4-chlorophenyl)-N-((3-methyl-1,2,4-oxadiazol-5-yl)methyl)-6-(2,2,2-trifluoroethoxy)nicotinamide] | 50% | 14% | – |
| O=C(NCc1nc(C(F)(F)F)no1)c1cnc(OC2CCC2)c(-c2ccc(Cl)cc2)c1 [Example 92, 5-(4-chlorophenyl)-6-cyclobutoxy-N-((3-(trifluoromethyl)-1,2,4-oxadiazol-5-yl)methyl)nicotinamide] | 43% | 9% | – |
| O=C(NCc1nc(C(F)(F)F)no1)c1cnc(OC2CCC2)c(-c2ccc(Cl)c(F)c2)c1 [Example 93, 5-(4-chloro-3-fluorophenyl)-6-cyclobutoxy-N-((3-(trifluoromethyl)-1,2,4-oxadiazol-5-yl)methyl)nicotinamide] | 18% | 7% | – |
| O=C(NCc1nc(C(F)(F)F)no1)c1cnc(OCC2CC2)c(-c2ccc(F)c(F)c2)c1 [Example 95, 6-(cyclopropylmethoxy)-5-(3,4-difluorophenyl)-N-((3-(trifluoromethyl)-1,2,4-oxadiazol-5-yl)methyl)nicotinamide] | 39% | 21% | – |
| COCCOc1ncc(C(=O)NCc2nc(C(F)(F)F)no2)cc1-c1ccc(F)c(F)c1 [Example 96, 5-(3,4-difluorophenyl)-6-(2-methoxyethoxy)-N-((3-(trifluoromethyl)-1,2,4-oxadiazol-5-yl)methyl)nicotinamide] | 45% | 8% | – |
| COCCOc1ncc(C(=O)NCc2nc(C(F)(F)F)no2)cc1-c1ccc(Cl)c(F)c1 [Example 97, 5-(4-chloro-3-fluorophenyl)-6-(2-methoxyethoxy)-N-((3-(trifluoromethyl)-1,2,4-oxadiazol-5-yl)methyl)nicotinamide] | – | 25% | 48% |
